Laboratory results as given in ChEMBL document CHEMBL6127104, “Prorocentin-5: A Cytotoxic Polyketide from the Benthic Marine Dinoflagellate Prorocentrum lima” (J Nat Prod, 2024).

Tests used:
Format in all cases: functional
HCT-116 [1] = experiment: Induction of cell cycle arrest in human HCT-116 cells assessed as accumulation of cells at S phase at 1 uM incubated for 24 hrs by flow cytometric analysis (reference value: 19.2 %)
HCT-116 [2] = experiment: Induction of apoptosis in human HCT-116 cells assessed as necrotic cells at 1 uM incubated for 24 hrs by Annexin V-FITC/PI staining based flow cytometric analysis (reference value: 1.45 %)
N2a [3] = experiment: Induction of apoptosis in mouse Neuro2a cells assessed as fold increase in late apoptotic cells at 1 uM incubated for 24 hrs by Annexin V-FITC/PI staining based analysis
HepG2 [4] = experiment: Induction of apoptosis in human HepG2 cells assessed as early apoptotic cells at 0.1 uM incubated for 24 hrs by Annexin V-FITC/PI staining based flow cytometric analysis (reference value: 4.85 %)
N2a [5] = experiment: Induction of cell cycle arrest in mouse Neuro2a cells assessed as accumulation of cells at G0/G1 phase at 0.1 uM incubated for 24 hrs by flow cytometric analysis (reference value: 61.5 %)
HCT-116 [6] = experiment: Induction of cell cycle arrest in human HCT-116 cells assessed as accumulation of cells at G0/G1 phase at 1 uM incubated for 24 hrs by flow cytometric analysis (reference value: 90.2 %)
HCT-116 [7] = experiment: Induction of apoptosis in human HCT-116 cells assessed as necrotic cells at 0.1 uM incubated for 24 hrs by Annexin V-FITC/PI staining based flow cytometric analysis (reference value: 1.45 %)
N2a [8] = experiment: Induction of cell cycle arrest in mouse Neuro2a cells assessed as accumulation of cells at S phase at 0.1 uM incubated for 24 hrs by flow cytometric analysis (reference value: 30.5 %)
HepG2 [9] = experiment: Induction of apoptosis in human HepG2 cells assessed as fold increase in early apoptotic cells at 1 uM incubated for 24 hrs by Annexin V-FITC/PI staining based flow cytometric analysis
N2a [10] = experiment: Induction of apoptosis in mouse Neuro2a cells assessed as viable cells at 1 uM incubated for 24 hrs by Annexin V-FITC/PI staining based analysis (reference value: 91.70 %); conditions: read-out: Activity
HepG2 [11] = experiment: Induction of cell cycle arrest in human HepG2 cells assessed as accumulation of cells at G0/G1 phase at 1 uM incubated for 24 hrs by flow cytometric analysis (reference value: 66.4 %)
HCT-116 [12] = experiment: Induction of apoptosis in human HCT-116 cells assessed as late apoptotic cells at 0.1 uM incubated for 24 hrs by Annexin V-FITC/PI staining based flow cytometric analysis (reference value: 6.15 %)
HepG2 [13] = experiment: Induction of cell cycle arrest in human HepG2 cells assessed as accumulation of cells at S phase at 0.1 uM incubated for 24 hrs by flow cytometric analysis (reference value: 27.8 %)
HCT-116 [14] = experiment: Induction of apoptosis in human HCT-116 cells assessed as early apoptotic cells at 1 uM incubated for 24 hrs by Annexin V-FITC/PI staining based flow cytometric analysis (reference value: 1.90 %)
HepG2 [15] = experiment: Induction of apoptosis in human HepG2 cells assessed as necrotic cells at 1 uM incubated for 24 hrs by Annexin V-FITC/PI staining based flow cytometric analysis (reference value: 3.02 %)
HCT-116 [16] = experiment: Induction of cell cycle arrest in human HCT-116 cells assessed as accumulation of cells at G2/M phase at 0.1 uM incubated for 24 hrs by flow cytometric analysis (reference value: 30.6 %)
N2a [17] = experiment: Induction of apoptosis in mouse Neuro2a cells assessed as necrotic cells at 0.1 uM incubated for 24 hrs by Annexin V-FITC/PI staining based analysis (reference value: 4.33 %)
HepG2 [18] = experiment: Induction of apoptosis in human HepG2 cells assessed as viable cells at 1 uM incubated for 24 hrs by Annexin V-FITC/PI staining based flow cytometric analysis (reference value: 90.08 %); conditions: read-out: Activity
N2a [19] = experiment: Induction of apoptosis in mouse Neuro2a cells assessed as early apoptotic cells at 1 uM incubated for 24 hrs by Annexin V-FITC/PI staining based analysis (reference value: 3.17 %)
HepG2 [20] = experiment: Induction of apoptosis in human HepG2 cells assessed as late apoptotic cells at 0.1 uM incubated for 24 hrs by Annexin V-FITC/PI staining based flow cytometric analysis (reference value: 2.05 %)
N2a [21] = experiment: Induction of cell cycle arrest in mouse Neuro2a cells assessed as accumulation of cells at S phase at 1 uM incubated for 24 hrs by flow cytometric analysis (reference value: 30.5 %)
N2a [22] = experiment: Induction of apoptosis in mouse Neuro2a cells assessed as necrotic cells at 1 uM incubated for 24 hrs by Annexin V-FITC/PI staining based analysis (reference value: 4.33 %)
N2a [23] = experiment: Induction of apoptosis in mouse Neuro2a cells assessed as viable cells at 0.1 uM incubated for 24 hrs by Annexin V-FITC/PI staining based analysis (reference value: 91.70 %); conditions: read-out: Activity
HepG2 [24] = experiment: Induction of cell cycle arrest in human HepG2 cells assessed as accumulation of cells at S phase at 1 uM incubated for 24 hrs by flow cytometric analysis (reference value: 27.8 %)
N2a [25] = experiment: Induction of apoptosis in mouse Neuro2a cells assessed as late apoptotic cells at 1 uM incubated for 24 hrs by Annexin V-FITC/PI staining based analysis (reference value: 0.81 %)
N2a [26] = experiment: Induction of apoptosis in mouse Neuro2a cells assessed as early apoptotic cells at 0.1 uM incubated for 24 hrs by Annexin V-FITC/PI staining based analysis (reference value: 3.17 %)
HCT-116 [27] = experiment: Induction of cell cycle arrest in human HCT-116 cells assessed as accumulation of cells at G2/M phase at 1 uM incubated for 24 hrs by flow cytometric analysis (reference value: 30.6 %)
HepG2 [28] = experiment: Induction of cell cycle arrest in human HepG2 cells assessed as accumulation of cells at G0/G1 phase at 0.1 uM incubated for 24 hrs by flow cytometric analysis (reference value: 66.4 %)
N2a [29] = experiment: Induction of apoptosis in mouse Neuro2a cells assessed as fold increase in early apoptotic cells at 1 uM incubated for 24 hrs by Annexin V-FITC/PI staining based analysis
HepG2 [30] = experiment: Induction of cell cycle arrest in human HepG2 cells assessed as accumulation of cells at G2/M phase at 1 uM incubated for 24 hrs by flow cytometric analysis (reference value: 27.8 %)
HCT-116 [31] = experiment: Induction of apoptosis in human HCT-116 cells assessed as viable cells at 0.1 uM incubated for 24 hrs by Annexin V-FITC/PI staining based flow cytometric analysis (reference value: 90.50 %); conditions: read-out: Activity
N2a [32] = experiment: Induction of cell cycle arrest in mouse Neuro2a cells assessed as accumulation of cells at G2/M phase at 0.1 uM incubated for 24 hrs by flow cytometric analysis (reference value: 8.0 %)
HepG2 [33] = experiment: Induction of cell cycle arrest in human HepG2 cells assessed as accumulation of cells at G2/M phase at 0.1 uM incubated for 24 hrs by flow cytometric analysis (reference value: 6.7 %)
HCT-116 [34] = experiment: Induction of apoptosis in human HCT-116 cells assessed as viable cells at 1 uM incubated for 24 hrs by Annexin V-FITC/PI staining based flow cytometric analysis (reference value: 90.50 %); conditions: read-out: Activity
HepG2 [35] = experiment: Induction of apoptosis in human HepG2 cells assessed as viable cells at 0.1 uM incubated for 24 hrs by Annexin V-FITC/PI staining based flow cytometric analysis (reference value: 90.08 %); conditions: read-out: Activity
HepG2 [36] = experiment: Induction of apoptosis in human HepG2 cells assessed as necrotic cells at 0.1 uM incubated for 24 hrs by Annexin V-FITC/PI staining based flow cytometric analysis (reference value: 3.02 %)
HCT-116 [37] = experiment: Induction of apoptosis in human HCT-116 cells assessed as early apoptotic cells at 0.1 uM incubated for 24 hrs by Annexin V-FITC/PI staining based flow cytometric analysis (reference value: 1.90 %)
HCT-116 [38] = experiment: Induction of apoptosis in human HCT-116 cells assessed as late apoptotic cells at 1 uM incubated for 24 hrs by Annexin V-FITC/PI staining based flow cytometric analysis (reference value: 6.15 %)
N2a [39] = experiment: Induction of cell cycle arrest in mouse Neuro2a cells assessed as accumulation of cells at G0/G1 phase at 1 uM incubated for 24 hrs by flow cytometric analysis (reference value: 61.5 %)
HepG2 [40] = experiment: Induction of apoptosis in human HepG2 cells assessed as early apoptotic cells at 1 uM incubated for 24 hrs by Annexin V-FITC/PI staining based flow cytometric analysis (reference value: 4.85 %)
N2a [41] = experiment: Induction of cell cycle arrest in mouse Neuro2a cells assessed as accumulation of cells at G2/M phase at 1 uM incubated for 24 hrs by flow cytometric analysis (reference value: 8.0 %)
N2a [42] = experiment: Induction of apoptosis in mouse Neuro2a cells assessed as late apoptotic cells at 0.1 uM incubated for 24 hrs by Annexin V-FITC/PI staining based analysis (reference value: 0.81 %)
HepG2 [43] = experiment: Induction of apoptosis in human HepG2 cells assessed as late apoptotic cells at 1 uM incubated for 24 hrs by Annexin V-FITC/PI staining based flow cytometric analysis (reference value: 2.05 %)
HCT-116 [44] = experiment: Induction of cell cycle arrest in human HCT-116 cells assessed as accumulation of cells at G0/G1 phase at 0.1 uM incubated for 24 hrs by flow cytometric analysis (reference value: 90.2 %)
HepG2 [45] = experiment: Induction of apoptosis in human HepG2 cells assessed as fold increase in late apoptotic cells at 1 uM incubated for 24 hrs by Annexin V-FITC/PI staining based flow cytometric analysis
HCT-116 [46] = experiment: Induction of cell cycle arrest in human HCT-116 cells assessed as accumulation of cells at S phase at 0.1 uM incubated for 24 hrs by flow cytometric analysis (reference value: 19.2 %)
HCT-116 [47] = experiment: Induction of apoptosis in human HCT-116 cells assessed as fold increase in late apoptotic cells at 1 uM incubated for 24 hrs by Annexin V-FITC/PI staining based analysis
HCT-116 [48] = experiment: Induction of apoptosis in human HCT-116 cells assessed as fold increase in early apoptotic cells at 1 uM incubated for 24 hrs by Annexin V-FITC/PI staining based analysis

Question: Which results are given for `C=C1[C@@H](O)[C@@H]2O[C@]3(CC[C@H](/C=C/[C@@H](C)[C@@H]4CC(C)=C[C@@]5(O[C@H](C[C@@](C)(O)C(=O)O)CC[C@H]5O)O4)O3)CC[C@H]2O[C@@H]1[C@@H](O)C[C@H](C)[C@H]1O[C@@]2(CCCCO2)CC[C@H]1C` [OKADAIC ACID]?
Answer: Activity (HCT-116 [1]): 23.9%; Activity (HCT-116 [2]): 19.75%; fold change (FC) (N2a [3]): 13.2; Activity (HepG2 [4]): 13.5%; Activity (N2a [5]): 30.4%; Activity (HCT-116 [6]): 55.5%; Activity (HCT-116 [7]): 12.45%; Activity (N2a [8]): 56.6%; fold change (FC) (HepG2 [9]): 4.9; viability at 1 µM (N2a [10]): 59.7%; Activity (HepG2 [11]): 49.5%; Activity (HCT-116 [12]): 7.55%; Activity (HepG2 [13]): 36.8%; Activity (HCT-116 [14]): 3.65%; Activity (HepG2 [15]): 2.92%; Activity (HCT-116 [16]): 44.6%; Activity (N2a [17]): 4.9%; viability at 1 µM (HepG2 [18]): 50.9%; Activity (N2a [19]): 29.01%; Activity (HepG2 [20]): 24.73%; Activity (N2a [21]): 55%; Activity (N2a [22]): 0.57%; viability at 0.1 µM (N2a [23]): 76.4%; Activity (HepG2 [24]): 37.2%; Activity (N2a [25]): 10.7%; Activity (N2a [26]): 10.91%; Activity (HCT-116 [27]): 20.4%; Activity (HepG2 [28]): 48.5%; fold change (FC) (N2a [29]): 9.2; Activity (HepG2 [30]): 13.3%; viability at 0.1 µM (HCT-116 [31]): 79.2%; Activity (N2a [32]): 13%; Activity (HepG2 [33]): 14.6%; viability at 1 µM (HCT-116 [34]): 59.7%; viability at 0.1 µM (HepG2 [35]): 52.7%; Activity (HepG2 [36]): 9.05%; Activity (HCT-116 [37]): 0.8%; Activity (HCT-116 [38]): 16.9%; Activity (N2a [39]): 36%; Activity (HepG2 [40]): 23.72%; Activity (N2a [41]): 8.1%; Activity (N2a [42]): 7.75%; Activity (HepG2 [43]): 22.44%; Activity (HCT-116 [44]): 32.2%; fold change (FC) (HepG2 [45]): 11; Activity (HCT-116 [46]): 23%; fold change (FC) (HCT-116 [47]): 2.8; fold change (FC) (HCT-116 [48]): 1.9
